Experimental data: ChEMBL document CHEMBL4602639, “A novel series of 11-O-carbamoyl-3-O-descladinosyl clarithromycin derivatives bearing 1,2,3-triazole group: Design, synthesis and antibacterial evaluation” (2020)
In brackets after ≈: the same amount, converted by molar mass. Activity calls are given as the source filed them. No cut-off for these calls is given here.

What was measured:
Pseudomonas aeruginosa = assay: Antibacterial activity against penicillin-susceptible Pseudomonas aeruginosa ATCC 27853 by standard broth microdilution method; type: functional
Streptococcus pneumoniae [1] = assay: Antibacterial activity against erythromycin-resistant Streptococcus pneumoniae B1 expressing ermB gene by standard broth microdilution method; type: functional
Streptococcus pneumoniae [2] = assay: Antibacterial activity against erythromycin-resistant Streptococcus pneumoniae AB11 expressing ermB and me/A genes by standard broth microdilution method; type: functional
Staphylococcus aureus [3] = assay: Antibacterial activity against erythromycin-susceptible Staphylococcus aureus ATCC 25923 by standard broth microdilution method; type: functional
Staphylococcus aureus [4] = assay: Antibacterial activity against methicillin-resistant Staphylococcus aureus ATCC 43300 by standard broth microdilution method; type: functional
Streptococcus pneumoniae [5] = assay: Potency index, ratio of MIC of CAM to MIC of compound for antibacterial activity against erythromycin-resistant Streptococcus pneumoniae AB11 expressing ermB and me/A genes; type: functional
Escherichia coli = assay: Antibacterial activity against penicillin-susceptible Escherichia coli ATCC 25922 by standard broth microdilution method; type: functional
Streptococcus pneumoniae [6] = assay: Potency index, ratio of MIC of AZM to MIC of compound for antibacterial activity against erythromycin-resistant Streptococcus pneumoniae AB11 expressing ermB and me/A genes; type: functional
Bacillus subtilis [7] = assay: Antibacterial activity against penicillin-susceptible Bacillus subtilis ATCC 9372 by standard broth microdilution method; type: functional
Streptococcus pyogenes [8] = assay: Antibacterial activity against erythromycin resistant Streptococcus pyogenes R1 by standard broth microdilution method; type: functional
Streptococcus pyogenes [9] = assay: Potency index, ratio of MIC of CAM to MIC of compound for antibacterial activity against erythromycin resistant Streptococcus pyogenes R1; type: functional
Streptococcus pyogenes [10] = assay: Potency index, ratio of MIC of AZM to MIC of compound for antibacterial activity against erythromycin resistant Streptococcus pyogenes R1; type: functional
Staphylococcus aureus [11] = assay: Potency index, ratio of MIC of AZM to MIC of compound for antibacterial activity against methicillin-resistant Staphylococcus aureus ATCC 43300; type: functional
Staphylococcus aureus [12] = assay: Potency index, ratio of MIC of CAM to MIC of compound for antibacterial activity against methicillin-resistant Staphylococcus aureus ATCC 43300; type: functional
Streptococcus pneumoniae [13] = assay: Potency index, ratio of MIC of CAM to MIC of compound for antibacterial activity against erythromycin-resistant Streptococcus pneumoniae B1 expressing ermB gene; type: functional
Streptococcus pneumoniae [14] = assay: Potency index, ratio of MIC of AZM to MIC of compound for antibacterial activity against erythromycin-resistant Streptococcus pneumoniae B1 expressing ermB gene; type: functional
Streptococcus pneumoniae [15] = assay: Bactericidal activity against erythromycin-resistant Streptococcus pneumoniae AB11 expressing ermB and me/A genes; type: functional
Bacillus subtilis [16] = assay: Bactericidal activity against penicillin-susceptible Bacillus subtilis ATCC 9372; type: functional
Streptococcus pneumoniae [17] = assay: Ratio of MBC for erythromycin-resistant Streptococcus pneumoniae AB11 expressing ermB and me/A genes to MIC for erythromycin-resistant Streptococcus pneumoniae AB11 expressing ermB and me/A genes; type: functional
Bacillus subtilis [18] = assay: Ratio of MBC for penicillin-susceptible Bacillus subtilis ATCC 9372 to MIC for penicillin-susceptible Bacillus subtilis ATCC 9372; type: functional
Streptococcus pneumoniae [19] = assay: Bacteriostatic activity against erythromycin-resistant Streptococcus pneumoniae AB11 expressing ermB and me/A genes at 1 to 4 MIC incubated for 9 to 24 hrs by time-kill curve assay; type: functional, organism-based
Streptococcus pneumoniae [20] = assay: Bactericidal activity against erythromycin-resistant Streptococcus pneumoniae AB11 expressing ermB and me/A genes at 1 to 4 times of MIC incubated for 9 hrs by time-kill curve assay; type: functional, organism-based

CC[C@H]1OC(=O)[C@H](C)C(=O)[C@H](C)[C@@H](O[C@H]2O[C@@H](C)C[C@@H](N(C)C)[C@@H]2O)[C@](C)(OC)C[C@@H](C)C(=O)[C@H](C)[C@@H](OC(=O)NCCCn2cc(-c3cccc(N)c3)nn2)[C@]1(C)O
MIC (Pseudomonas aeruginosa): 128 mg/L (≈ 154 µM)
MIC (Streptococcus pneumoniae [1]): 128 mg/L (≈ 154 µM)
MIC (Streptococcus pneumoniae [2]): 32 mg/L (≈ 38.5 µM)
MIC (Staphylococcus aureus [3]): 16 mg/L (≈ 19.3 µM)
MIC (Staphylococcus aureus [4]): > 256 mg/L
Ratio (Streptococcus pneumoniae [5]): 4 - 8
MIC (Escherichia coli): > 128 mg/L
Ratio (Streptococcus pneumoniae [6]): 8 - 16
MIC (Bacillus subtilis [7]): 4 mg/L (≈ 4.81 µM)
MIC (Streptococcus pyogenes [8]): 128 mg/L (≈ 154 µM)

CC[C@H]1OC(=O)[C@H](C)C(=O)[C@H](C)[C@@H](O[C@H]2O[C@@H](C)C[C@@H](N(C)C)[C@@H]2O)[C@](C)(OC)C[C@@H](C)C(=O)[C@H](C)[C@@H](OC(=O)NCCCn2cc(-c3ccccc3OC)nn2)[C@]1(C)O
MIC (Pseudomonas aeruginosa): 128 mg/L (≈ 151 µM)
MIC (Streptococcus pneumoniae [1]): 256 mg/L (≈ 303 µM)
MIC (Streptococcus pneumoniae [2]): 32 mg/L (≈ 37.8 µM)
MIC (Staphylococcus aureus [3]): 8 mg/L (≈ 9.46 µM)
MIC (Staphylococcus aureus [4]): > 256 mg/L
Ratio (Streptococcus pneumoniae [5]): 4 - 8
MIC (Escherichia coli): > 128 mg/L
Ratio (Streptococcus pneumoniae [6]): 8 - 16
MIC (Bacillus subtilis [7]): 2 mg/L (≈ 2.36 µM)
MIC (Streptococcus pyogenes [8]): 64 mg/L (≈ 75.6 µM)

CC[C@H]1OC(=O)[C@H](C)C(=O)[C@H](C)[C@@H](O[C@H]2O[C@@H](C)C[C@@H](N(C)C)[C@@H]2O)[C@](C)(OC)C[C@@H](C)C(=O)[C@H](C)[C@@H](OC(=O)NCCCn2cc(-c3cccc(Br)c3)nn2)[C@]1(C)O
MIC (Pseudomonas aeruginosa): 128 mg/L (≈ 143 µM)
MIC (Streptococcus pneumoniae [1]): 64 mg/L (≈ 71.5 µM)
MIC (Streptococcus pneumoniae [2]): 32 mg/L (≈ 35.8 µM)
MIC (Staphylococcus aureus [3]): 8 mg/L (≈ 8.94 µM)
MIC (Staphylococcus aureus [4]): 128 mg/L (≈ 143 µM)
Ratio (Streptococcus pneumoniae [5]): 4 - 8
MIC (Escherichia coli): > 128 mg/L
Ratio (Streptococcus pneumoniae [6]): 8 - 16
Ratio (Streptococcus pyogenes [9]): 8 - 16
MIC (Bacillus subtilis [7]): 2 mg/L (≈ 2.23 µM)
MIC (Streptococcus pyogenes [8]): 32 mg/L (≈ 35.8 µM)
Ratio (Streptococcus pyogenes [10]): 8 - 16

CCCCc1ccc(-c2cn(CCCNC(=O)O[C@@H]3[C@@H](C)C(=O)[C@H](C)C[C@@](C)(OC)[C@H](O[C@H]4O[C@@H](C)C[C@@H](N(C)C)[C@@H]4O)[C@@H](C)C(=O)[C@@H](C)C(=O)O[C@H](CC)[C@@]3(C)O)nn2)cc1
Ratio (Staphylococcus aureus [11]): >4
MIC (Pseudomonas aeruginosa): 128 mg/L (≈ 147 µM)
MIC (Streptococcus pneumoniae [1]): 32 mg/L (≈ 36.7 µM)
MIC (Streptococcus pneumoniae [2]): 32 mg/L (≈ 36.7 µM)
MIC (Staphylococcus aureus [3]): 16 mg/L (≈ 18.3 µM)
MIC (Staphylococcus aureus [4]): 64 mg/L (≈ 73.4 µM)
Ratio (Streptococcus pneumoniae [5]): 4 - 8
MIC (Escherichia coli): > 128 mg/L
Ratio (Streptococcus pneumoniae [6]): 8 - 16
Ratio (Streptococcus pyogenes [9]): 8 - 16
MIC (Bacillus subtilis [7]): 2 mg/L (≈ 2.29 µM)
MIC (Streptococcus pyogenes [8]): 16 mg/L (≈ 18.3 µM)
Ratio (Streptococcus pyogenes [10]): 8 - 16
Ratio (Staphylococcus aureus [12]): >4

CC[C@H]1OC(=O)[C@H](C)C(=O)[C@H](C)[C@@H](O[C@H]2O[C@@H](C)C[C@@H](N(C)C)[C@@H]2O)[C@](C)(OC)C[C@@H](C)C(=O)[C@H](C)[C@@H](OC(=O)NCCCn2cc(-c3ccc(-c4ccccc4)cc3)nn2)[C@]1(C)O
Ratio (Staphylococcus aureus [11]): >4
Ratio (Streptococcus pneumoniae [13]): >16
Ratio (Streptococcus pneumoniae [14]): >16
MIC (Pseudomonas aeruginosa): 128 mg/L (≈ 143 µM)
MBC (Streptococcus pneumoniae [15]): 128 mg/L (≈ 143 µM)
MIC (Streptococcus pneumoniae [1]): 16 mg/L (≈ 17.9 µM)
MIC (Streptococcus pneumoniae [2]): 16 mg/L (≈ 17.9 µM)
MBC (Bacillus subtilis [16]): 32 mg/L (≈ 35.9 µM)
MIC (Staphylococcus aureus [3]): 4 mg/L (≈ 4.48 µM)
Ratio (Streptococcus pneumoniae [17]): 8
Ratio (Bacillus subtilis [18]): 32
MIC (Staphylococcus aureus [4]): 64 mg/L (≈ 71.7 µM)
Ratio (Streptococcus pneumoniae [5]): 4 - 8
MIC (Escherichia coli): > 128 mg/L
Ratio (Streptococcus pneumoniae [6]): 8 - 16
Ratio (Streptococcus pyogenes [9]): 8 - 16
MIC (Bacillus subtilis [7]): 1 mg/L (≈ 1.12 µM)
MIC (Streptococcus pyogenes [8]): 16 mg/L (≈ 17.9 µM)
Ratio (Streptococcus pyogenes [10]): 8 - 16
Ratio (Staphylococcus aureus [12]): >4

CC[C@H]1OC(=O)[C@H](C)[C@@H](O[C@H]2C[C@@](C)(OC)[C@@H](O)[C@H](C)O2)[C@H](C)[C@@H](O[C@@H]2O[C@H](C)C[C@H](N(C)C)[C@H]2O)[C@](C)(OC)C[C@@H](C)C(=O)[C@H](C)[C@@H](O)[C@]1(C)O [CLARITHROMYCIN]
MIC (Pseudomonas aeruginosa): 32 mg/L (≈ 42.8 µM)
MBC (Streptococcus pneumoniae [15]): 256 mg/L (≈ 342 µM)
MIC (Streptococcus pneumoniae [1]): > 256 mg/L
MIC (Streptococcus pneumoniae [2]): 128 mg/L (≈ 171 µM)
MBC (Bacillus subtilis [16]): 128 mg/L (≈ 171 µM)
MIC (Staphylococcus aureus [3]): 0.25 mg/L (≈ 0.334 µM)
Ratio (Streptococcus pneumoniae [17]): 16
Ratio (Bacillus subtilis [18]): 128
MIC (Staphylococcus aureus [4]): > 256 mg/L
MIC (Escherichia coli): > 128 mg/L
MIC (Bacillus subtilis [7]): 0.25 mg/L (≈ 0.334 µM)
MIC (Streptococcus pyogenes [8]): 256 mg/L (≈ 342 µM)

CCCCc1ccc(-c2cn(CCNC(=O)O[C@@H]3[C@@H](C)C(=O)[C@H](C)C[C@@](C)(OC)[C@H](O[C@H]4O[C@@H](C)C[C@@H](N(C)C)[C@@H]4O)[C@@H](C)C(=O)[C@@H](C)C(=O)O[C@H](CC)[C@@]3(C)O)nn2)cc1
MIC (Pseudomonas aeruginosa): 128 mg/L (≈ 149 µM)
MIC (Streptococcus pneumoniae [1]): 128 mg/L (≈ 149 µM)
MIC (Streptococcus pneumoniae [2]): 64 mg/L (≈ 74.6 µM)
MIC (Staphylococcus aureus [3]): 16 mg/L (≈ 18.6 µM)
MIC (Staphylococcus aureus [4]): 256 mg/L (≈ 298 µM)
MIC (Escherichia coli): > 128 mg/L
Ratio (Streptococcus pyogenes [9]): 8 - 16
MIC (Bacillus subtilis [7]): 4 mg/L (≈ 4.66 µM)
MIC (Streptococcus pyogenes [8]): 32 mg/L (≈ 37.3 µM)
Ratio (Streptococcus pyogenes [10]): 8 - 16

CC[C@H]1OC(=O)[C@H](C)C(=O)[C@H](C)[C@@H](O[C@H]2O[C@@H](C)C[C@@H](N(C)C)[C@@H]2O)[C@](C)(OC)C[C@@H](C)C(=O)[C@H](C)[C@@H](OC(=O)NCCn2cc(-c3ccc(-c4ccccc4)cc3)nn2)[C@]1(C)O
MIC (Pseudomonas aeruginosa): 128 mg/L (≈ 146 µM)
MIC (Streptococcus pneumoniae [1]): 128 mg/L (≈ 146 µM)
MIC (Streptococcus pneumoniae [2]): 64 mg/L (≈ 72.9 µM)
MIC (Staphylococcus aureus [3]): 32 mg/L (≈ 36.4 µM)
MIC (Staphylococcus aureus [4]): 128 mg/L (≈ 146 µM)
MIC (Escherichia coli): > 128 mg/L
Ratio (Streptococcus pyogenes [9]): 8 - 16
MIC (Bacillus subtilis [7]): 4 mg/L (≈ 4.56 µM)
MIC (Streptococcus pyogenes [8]): 32 mg/L (≈ 36.4 µM)
Ratio (Streptococcus pyogenes [10]): 8 - 16

CC[C@H]1OC(=O)[C@H](C)C(=O)[C@H](C)[C@@H](O[C@H]2O[C@@H](C)C[C@@H](N(C)C)[C@@H]2O)[C@](C)(OC)C[C@@H](C)C(=O)[C@H](C)[C@@H](OC(=O)NCCCn2cc(-c3ccc(Cl)cc3)nn2)[C@]1(C)O
MIC (Pseudomonas aeruginosa): 128 mg/L (≈ 151 µM)
MBC (Streptococcus pneumoniae [15]): 128 mg/L (≈ 151 µM)
Activity (Streptococcus pneumoniae [19]): Dose-dependent effect
MIC (Streptococcus pneumoniae [1]): 64 mg/L (≈ 75.3 µM)
MIC (Streptococcus pneumoniae [2]): 16 mg/L (≈ 18.8 µM)
MBC (Bacillus subtilis [16]): 128 mg/L (≈ 151 µM)
MIC (Staphylococcus aureus [3]): 4 mg/L (≈ 4.7 µM)
Ratio (Streptococcus pneumoniae [17]): 1
Ratio (Bacillus subtilis [18]): 512
MIC (Staphylococcus aureus [4]): 128 mg/L (≈ 151 µM)
Ratio (Streptococcus pneumoniae [5]): 4 - 8
MIC (Escherichia coli): > 128 mg/L
Ratio (Streptococcus pneumoniae [6]): 8 - 16
Activity (Streptococcus pneumoniae [20]): Active
Ratio (Streptococcus pyogenes [9]): 8 - 16
MIC (Bacillus subtilis [7]): 1 mg/L (≈ 1.18 µM)
MIC (Streptococcus pyogenes [8]): 32 mg/L (≈ 37.6 µM)
Ratio (Streptococcus pyogenes [10]): 8 - 16
